Consider 20 molecules from ChEMBL document CHEMBL1132068, “A new class of anti-HIV agents: synthesis and activity of conjugates of HIV protease inhibitors with a reverse transcriptase inhibitor” (Bioorg Med Chem Lett, 1999).

Bounds are passed on as bounds.

The inhibition is the share of the control response that was lost under treatment. The term EC50 denotes the concentration needed to bring the measured effect to its halfway point.

In experiment [1] the target is Human immunodeficiency virus type 1 protease (Human immunodeficiency virus 1) (UniProt Q72874). Briefly: Inhibitory activity against HIV protease at a concentration of 5 uM.
Experiment [2] shares this target. Briefly: Inhibitory activity against HIV protease at a concentration of 50 uM.
The test system of a further experiment is MT4. Put plainly: Inhibitory activity against HIV-1 IIIB in MT-4 infected cells. It counts as functional, cell-based. To be noted: Homo sapiens.
Experiment [3] relates to CEM-SS. Put plainly: Inhibitory activity against HIV-1 IIIB in CEM-SS infected cells relative to AZT. It counts as functional, Homo sapiens.
Experiment [4] deals with CEM-SS. Briefly: Inhibitory activity against HIV-1 IIIB in CEM-SS infected cells. It counts as functional, cell-based. To be noted: Homo sapiens.
Experiment [5] relates to CEM-SS. Put plainly: Inhibitory activity against HIV-1 IIIB in CEM-SS infected cells; In active. The experiment is classed as functional, cell-based, Homo sapiens.
The test system of experiment [6] is CEM-SS. Put plainly: Inhibitory activity against HIV-1 IIIB in CEM-SS infected cells (Experiment 2). The experiment is classed as functional, cell-based. The note with it: Homo sapiens.

As for `CC(C(=O)O)C(C)C(=O)N[C@@H](Cc1ccccc1)[C@H](O)C(=O)N1CSC[C@H]1C(=O)NC(C)(C)C` (stereo partly drawn), the inhibition in experiment [1] stood at 97%; in experiment [2], 32%. For the same molecule, in the experiment on MT4, the concentration for a half-maximal effect (EC50) was > 2000 µM.
In experiment [1], `CC(C)(C)NC(=O)[C@@H]1CSCN1C(=O)[C@@H](O)[C@H](Cc1ccccc1)NC(=O)CCC(=O)O` came in with an inhibition of 74%.
Turning to `Cc1cn(C2CC(N=[N+]=[N-])C(COC(=O)C(C)C(C)C(=O)N[C@@H](Cc3ccccc3)[C@H](O)C(=O)N3CSC(C)(C)[C@H]3C(=O)NC(C)(C)C)O2)c(=O)[nH]c1=O` (stereo partly drawn), the “Relative Potency” value with CEM-SS [3] came to 1.4. In experiment [1], this molecule gave an inhibition of 69%. The EC50 with CEM-SS [4] is 0.09 µM.
On the same counts, the results for `Cc1cn(C2CC(N=[N+]=[N-])C(COC(=O)CCC(=O)N[C@@H](Cc3ccccc3)[C@H](O)C(=O)N3CSC[C@H]3C(=O)NC(C)(C)C)O2)c(=O)[nH]c1=O` (stereo partly drawn) are 3, 14% and 0.042 µM.
In the case of `Cc1ccccc1CNC(=O)[C@@H]1CSCN1C(=O)[C@@H](O)[C@H](Cc1ccccc1)NC(=O)CC(C)(C)C(=O)O`, the inhibition in experiment [1] was 87%.
As to `Cc1ccccc1CNC(=O)[C@H]1N(C(=O)[C@@H](O)[C@H](Cc2ccccc2)NC(=O)CC(C)(C)C(=O)O)CSC1(C)C`, the EC50 result in the experiment on CEM-SS [5] was “Not Active”. Also, the inhibition in experiment [1] turned out to be 100%; in experiment [2], 78%.
`Cc1ccccc1CNC(=O)[C@@H]1CSCN1C(=O)[C@@H](O)[C@H](Cc1ccccc1)NC(=O)C(C)C(C)C(=O)O` (stereo partly drawn) returned an inhibition in experiment [1] of 88%.
Take `Cc1ccccc1CNC(=O)[C@H]1N(C(=O)[C@@H](O)[C@H](Cc2ccccc2)NC(=O)C(C)C(C)C(=O)O)CSC1(C)C` (stereo partly drawn): the inhibition in experiment [1] is 100%; in experiment [2] it was 76%.
With `CC(C)(C)NC(=O)[C@@H]1CSCN1C(=O)[C@@H](O)[C@H](Cc1ccccc1)NC(=O)CC(C)(C)C(=O)O`, the inhibition in experiment [1] amounted to 93%; in experiment [2], 20%. The EC50 in the experiment with MT4 is > 2000 µM.
As for `Cc1cn([C@H]2C[C@H](N=[N+]=[N-])[C@@H](CO)O2)c(=O)[nH]c1=O` [ZIDOVUDINE], a half-maximal response with CEM-SS [6] (EC50) required 0.011 µM. In addition, the “Relative Potency” value in the experiment with CEM-SS [3] came out at 1.
With `CSC[C@H](NC(=O)COc1cccc2cnccc12)C(=O)N[C@@H](Cc1ccccc1)[C@H](O)C(=O)N1CSC[C@H]1C(=O)NC(C)(C)C`, the inhibition in experiment [1] turned out to be 100%. The EC50 with MT4 was determined as 0.00057 µM; with CEM-SS [4] it was 0.04 µM.
Take `Cc1ccccc1CNC(=O)[C@H]1N(C(=O)[C@@H](O)[C@H](Cc2ccccc2)NC(=O)C(C)C(C)C(=O)OCC2OC(n3cc(C)c(=O)[nH]c3=O)CC2N=[N+]=[N-])CSC1(C)C` (stereo partly drawn): the “Relative Potency” value in the experiment with CEM-SS [3] is on record as 1.5. Further, the values for the inhibition in experiment [1] and in experiment [2] were 96% and 39%, respectively. In addition, in the experiment with CEM-SS [4], the midpoint of the response, the EC50, lay at 0.0073 µM.
For `CC(C(=O)O)C(C)C(=O)N[C@@H](Cc1ccccc1)[C@H](O)C(=O)N1CSC(C)(C)[C@H]1C(=O)NC(C)(C)C` (stereo partly drawn), the values for the inhibition in experiment [1] and in experiment [2] were 99% and 78%, respectively. Besides, in the experiment on MT4, the midpoint of the response, the EC50, lay at 225 µM.
The like results for `CC(C)(C)NC(=O)[C@H]1N(C(=O)[C@@H](O)[C@H](Cc2ccccc2)NC(=O)CC(C)(C)C(=O)O)CSC1(C)C` were, in that order, 99%, 76% and 52 µM.
For `Cc1ccccc1CNC(=O)[C@H]1N(C(=O)[C@@H](O)[C@H](Cc2ccccc2)NC(=O)CC(C)(C)C(=O)OCC2OC(n3cc(C)c(=O)[nH]c3=O)CC2N=[N+]=[N-])CSC1(C)C` (stereo partly drawn), the “Relative Potency” value with CEM-SS [3] was 46. In experiment [1], this molecule showed an inhibition of 83%. The midpoint of the response with CEM-SS [4], the EC50, lay at 0.00024 µM.
On the same counts, the results for `Cc1cn(C2CC(N=[N+]=[N-])C(COC(=O)C(C)(C)CC(=O)N[C@@H](Cc3ccccc3)[C@H](O)C(=O)N3CSC[C@H]3C(=O)NC(C)(C)C)O2)c(=O)[nH]c1=O` (stereo partly drawn) are 4.7, 9% and 0.027 µM.
Consider `Cc1cn(C2CC(N=[N+]=[N-])C(COC(=O)C(C)(C)CC(=O)N[C@@H](Cc3ccccc3)[C@H](O)C(=O)N3CSC(C)(C)[C@H]3C(=O)NC(C)(C)C)O2)c(=O)[nH]c1=O` (stereo partly drawn), for which, in the experiment on CEM-SS [3], the “Relative Potency” value was determined as 6.6. The inhibition in experiment [1] was 41%. This molecule yielded an EC50 with CEM-SS [4] of 0.019 µM.
The like results for `Cc1ccccc1CNC(=O)[C@@H]1CSCN1C(=O)[C@@H](O)[C@H](Cc1ccccc1)NC(=O)C(C)C(C)C(=O)OCC1OC(n2cc(C)c(=O)[nH]c2=O)CC1N=[N+]=[N-]` (stereo partly drawn) were, in that order, 1.2, 57% and 0.0089 µM.
For the molecule `Cc1cn(C2CC(N=[N+]=[N-])C(COC(=O)C(C)C(C)C(=O)N[C@@H](Cc3ccccc3)[C@H](O)C(=O)N3CSC[C@H]3C(=O)NC(C)(C)C)O2)c(=O)[nH]c1=O` (stereo partly drawn), the “Relative Potency” value in the experiment on CEM-SS [3] amounted to 4.7. Besides, the inhibition in experiment [1] worked out at 29%. Further, the half-maximal effective concentration (EC50) with CEM-SS [4] was found to be 0.027 µM.
On the same counts, the results for `Cc1ccccc1CNC(=O)[C@@H]1CSCN1C(=O)[C@@H](O)[C@H](Cc1ccccc1)NC(=O)CC(C)(C)C(=O)OCC1OC(n2cc(C)c(=O)[nH]c2=O)CC1N=[N+]=[N-]` (stereo partly drawn) are 2.9, 11% and 0.0038 µM.
